Measured values taken from US7772252B2, “Heterocyclic substituted carbonyl derivatives and their use as dopamine D3 receptor ligands” (Aventis Pharmaceuticals Inc., priority 2001, dated 2010).

Each molecule was assayed against T1, cloned human dopamine D3 receptors (Homo sapiens, UniProt P35462) (assay: [N-Methyl-3H]Spiroperidol binding to cloned human dopamine D3 receptors). Details: read-out: D3 Ki.
T1 construct: expressed in transfected cells; membrane homogenate
Excerpt: [N-Methyl-^3H]Spiroperidol Binding to Cloned Human Dopamine D3 Receptors
This assay measures the in vitro activity of compounds on cloned human dopamine (D3) receptors and predicts the direct dopamine-blocking properties of putative neuropsychiatric agents at human dopamine D3 receptors.
The D3 gene was isolated from a human striatal cDNA library (Stratagene). The gene was sequenced and sub-cloned into the expression vector RC/RSV (Invitrogen). CHO (Chinese Hamster Ovary) cells were stably transfected with 10 μg of the D3/RSV plasmid using the DOTAP method from Boehringer Mannheim and 72 clones that were G418 resistant were isolated. Using mRNA and binding displacement data a single high expressing clone was identified. This clone was then grown in large batches for the purpose of developing a 96 well format assay.
• 1. One plate (10 cm) with approximately 2-3 million D3 cells per plate is incubated with 1 ml of Trypsin-EDTA at room temperature for ˜2 min or until cells have lifted off plates. Four ml of Ham's F12+10% Fetal Bovine Serum+1% Penicillin/Streptomycin+G418 (400 μg/ml) medium are added to resuspend cells and 1 ml of this is added to each large plate (15 cm) containing 19 ml of the same medium as mentioned above. • 2. The 5 large plates are incubated at 37° C.+5% CO2 for ˜3 days or until the cells are confluent. • 3. After these plates are confluent, they are split into 10 large plates. Medium is aspirated off, 2 ml of Trypsin-EDTA are added to each plate and plates are incubated at RT for 2 min or until cells have lifted off the plate. Eight ml of the F12 medium (same medium as #1 above) are added to each plate (10 ml total) to resuspend the cells and 5 ml are transferred to the 2 new plates containing 15 ml of the F12 media. • 4. The 10 large plates are incubated at 37° C.+5% CO2 for ˜2 days or until the cells are confluent. • 5. The 10 large plates are split into 60 large plates (using Trypsin-EDTA as #3 except 4 ml of F12 medium are added to resuspend cells and 1 ml is aliquoted to 6 new plates containing 19 ml of F12 medium each). • 6. Plates are incubated at 37° C.+5% CO2 for ˜3 days or until cell are confluent. • 7. The 60 large plates are then split into 60 roller bottles (100-150 million cells/bottle). Medium is aspirated off, 2 ml of Trypsin-EDTA are added to each plate and incubated at RT for ˜2 minutes or until cells have lifted off plates. Eight ml of F12 medium are added to each plate to resuspend cells and the entire 10 ml are added to 1 roller bottle containing 90 ml of the F12 medium. • 8. The 60 roller bottles are immediately placed on their sides and transferred to the roller bottle incubator. They are incubated at 37° C.+5% CO2 for ˜3-5 days. Cells are spun at 30-40% motor speed in the Form a incubator. • 9. Medium is poured off and cells are washed 2× in PBS. • 10. Cells are then scraped off in 20 ml of PBS and the bottles are rinsed again with 5 ml of PBS to remove any remaining cells. Cells are stored on ice before membrane preparation. • 11. The yield for 60 D3 roller bottles has varied from ˜260-500 mg. • Note: All tissue culture reagents are from Gibco-BRL. C. Membrane Preparation
The cells are harvested into 250 ml centrifuge tubes with 100 volumes of cold phosphate buffered saline (PBS) and spun down (1200×G for 10 min at 4° C.). The medium is removed and 100 ml PBS are added to each centrifuge tube, cells are resuspened and spun down again. The PBS is removed and the final pellet is homogenized in an appropriate volume of 10% DMSO with a polytron on ice at a medium setting.
A 200 μl sample membrane homogenate is added to 200 μl of 1% SDS, vortexed and allowed to stand for 5 min. Aliquots (25, 50 and 100 μl) of this mixture are assayed in duplicate following the standard Bio-Rad DC protein assay protocol (kit catalog number 500-0112) and using reagent S. Absorbance readings are made at 750 nm (note: the most accurate protein OD readings are between 0.1-0.5 units). […]

T1 sequence (P35462 whole entry): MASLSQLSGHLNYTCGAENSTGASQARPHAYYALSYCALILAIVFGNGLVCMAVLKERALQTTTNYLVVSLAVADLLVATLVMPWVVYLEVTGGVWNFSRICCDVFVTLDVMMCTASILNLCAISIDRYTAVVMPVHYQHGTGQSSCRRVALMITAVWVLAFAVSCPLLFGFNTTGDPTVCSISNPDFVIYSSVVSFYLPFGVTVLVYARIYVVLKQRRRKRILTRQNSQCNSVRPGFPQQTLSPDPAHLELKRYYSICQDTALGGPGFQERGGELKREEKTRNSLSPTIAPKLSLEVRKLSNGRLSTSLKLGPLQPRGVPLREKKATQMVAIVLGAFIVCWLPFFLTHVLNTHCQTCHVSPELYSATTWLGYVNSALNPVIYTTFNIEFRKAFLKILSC

SMILES | Ki [nM]
CC1CCCCN1C(=O)[C@@H]1C[C@H]1CN1CCC(c2noc3ccsc23)CC1 (mixture of isomers) [compound 829462] | 9.65
O=C(NC1CCN(Cc2ccc(Cl)cc2)CC1)[C@@H]1C[C@H]1CN1CCC(c2noc3ccsc23)CC1 [compound 832729] | 1.67
O=C(NCCc1ccccc1Cl)C1CC1CN1CCC(c2noc3ccsc23)CC1 (racemic) [compound 831798] | 46.3
O=C([C@@H]1C[C@H]1CN1CCC(c2nsc3cc(Br)ccc23)CC1)N1CCC(Cn2ccnc2)CC1 [A002329098] | 345
O=C(NCCS(=O)(=O)c1ccccc1)C1CC1CN1CCC(c2noc3ccsc23)CC1 (racemic) [compound 831736] | 291
O=C(NCCCn1nnc2ccccc21)C1CC1CN1CCC(c2noc3ccsc23)CC1 (racemic) [compound 831687] | 277
O=C([C@@H]1C[C@H]1CN1CCC(c2csc3cc(C(F)(F)F)ccc23)CC1)N1CCC(Cn2ccnc2)CC1 [compound 834017] | 1.62
O=C([C@@H]1C[C@H]1CN1CCN(c2csc3cc(C(F)(F)F)ccc23)CC1)N1CCN(Cc2ccc(Cl)c(Cl)c2)CC1 [compound 831881] | 109
O=C(C1CC1CN1CCC(c2noc3ccsc23)CC1)N1CCC(n2ccnc2)CC1 (racemic) [compound 832193] | 13.1
O=C(NC1CCN(Cc2ccncc2)CC1)C1CC1CN1CCC(c2noc3ccsc23)CC1 (racemic) [compound 832393] | 8.44
O=C(NCCCN1CCCCC1)[C@@H]1C[C@H]1CN1CCC(c2noc3ccc(C(F)(F)F)cc23)CC1 [A002200838] | 0.807
COc1ccc2c(c1)c(N1CCN(C[C@@H]3C[C@H]3C(=O)NCCc3ccc(F)cc3)CC1)nn2C [compound 833629] | 2.69
Cn1nc(C2CCN(C[C@@H]3C[C@H]3C(=O)NCC3CCNCC3)CC2)c2sccc21 [A002440434A] | 462
COc1cccc(C(=O)NNC(=O)C2CC2CN2CCC(c3noc4ccsc34)CC2)c1 (racemic) [compound 831811] | 819
O=C([C@@H]1C[C@H]1CN1CCC(c2noc3cc(C(F)(F)F)ccc23)CC1)N1CCC[C@@H](Cn2ccnc2)C1 [A002287766] | 126
O=C([C@@H]1C[C@H]1CN1CCN(c2csc3cc(C(F)(F)F)ccc23)CC1)N1CCN(Cc2ccccc2)CC1 [compound 831883] | 48.1
CCC1CCC(NC(=O)C2CC2CN2CCC(Cc3ccccc3)CC2)CC1 (racemic) [compound 827248] | 19.4
Cn1nc(N2CCN(C[C@@H]3C[C@H]3C(=O)NCCCn3ccnc3)CC2)c2sccc21 [compound 831830] | 0.76
O=C(NCCc1ccc(F)cc1)[C@@H]1C[C@H]1CN1CCC(c2noc3ccsc23)CC1 [compound 832725] | 4.22
O=C(NC1CCN(Cc2cccc(F)c2)CC1)C1CC1CN1CCC(c2noc3ccsc23)CC1 (racemic) [compound 831994] | 2.68
Cn1nc(C2CCN(C[C@@H]3C[C@H]3C(=O)N3CCC(Cn4ccnc4)CC3)CC2)c2cccc(C(F)(F)F)c21 [A002329095] | 26.5
COc1cccc2c(C3CCN(C[C@@H]4C[C@H]4C(=O)NCCCN4CCCCC4)CC3)noc12 [compound 832108] | 178
CCCc1cc(N2CCN(CC3CC3C(=O)NC3CCC(C)CC3)CC2)nc(C(C)(C)C)n1 (racemic) [compound 817275] | 3.34
O=C([C@@H]1C[C@H]1CN1CCN(c2csc3cc(C(F)(F)F)ccc23)CC1)N1CCN(CCOCCO)CC1 [compound 832581] | 67.3
O=C(NC1CCN(Cc2ncc[nH]2)CC1)[C@@H]1C[C@H]1CN1CCC(c2noc3ccsc23)CC1 [compound 833382] | 2.32

SMILES | Ki [nM]
Cc1cccc(CN2CCC(NC(=O)C3CC3CN3CCC(c4noc5ccsc45)CC3)CC2)c1 (racemic) [compound 832348] | 0.465
O=C(NC1CCCC1)C1CC1CN1CCC(c2noc3ccsc23)CC1 (racemic) [compound 829592] | 42.3
COc1ccc(N2CCN(CC3CC3C(=O)NC3CCC(C)CC3)C(C)C2)cc1 (racemic) [compound 827192] | 150
O=C(NCCc1ccc(Cl)cc1)C1CC1CN1CCC(c2noc3ccsc23)CC1 (racemic) [compound 831800] | 5
O=C(NCc1ccc2ccccc2c1)C1CC1CN1CCC(c2noc3ccsc23)CC1 (racemic) [compound 831454] | 1.86
O=C(NCCc1ccccn1)[C@@H]1C[C@H]1CN1CCC(c2noc3ccsc23)CC1 [compound 831274] | 17.4
O=C(NC1CCN(Cc2ccc3ccccc3c2)CC1)C1CC1CN1CCC(c2noc3ccsc23)CC1 (racemic) [compound 831818] | 0.117
CCC1CCC(NC(=O)C2CC2CN2CCC(n3c(=O)[nH]c4ccccc43)CC2)CC1 (racemic) [compound 827250] | 45.2
COc1cc2c(cc1OC)CN(C(=O)[C@@H]1C[C@H]1CN1CCC(c3noc4ccsc34)CC1)CC2 [compound 831196] | 7.81
Cc1ccc(CN2CCN(C(=O)C3CC3CN3CCC(c4noc5ccsc45)CC3)CC2)cc1 (racemic) [compound 832154] | 21.9
CC(C)(C)c1ccc(CCNC(=O)C2CC2CN2CCC(c3noc4ccsc34)CC2)cc1 (racemic) [compound 832046] | 35.5
COc1ccc2c(c1)c(N1CCN(C[C@@H]3C[C@H]3C(=O)NC3CCN(Cc4ccc(Cl)cc4)CC3)CC1)nn2C [compound 833834] | 0.333
COc1cccc2c(C3CCN(C[C@@H]4C[C@H]4C(=O)NCCCc4ccccc4)CC3)noc12 [compound 832102] | 81.5
COc1ccc2c(c1)c(N1CCN(C[C@@H]3C[C@H]3C(=O)N3CCN(Cc4ccc(Cl)cc4)CC3)CC1)nn2C [compound 833124] | 26.8
O=C(C1CC1CN1CCC(c2noc3ccsc23)CC1)N1CCN(CCc2cccs2)CC1 (racemic) [compound 832049] | 6.54
C[C@H]1CC[C@H](NC(=O)C2(CCN3CCC(c4noc5ccsc45)CC3)CC2)CC1 [832241A] | 51.8
Cn1nc(C2CCN(C[C@@H]3C[C@H]3C(=O)N[C@H]3CC[C@H](C)CC3)CC2)c2ccc(C(F)(F)F)cc21 [compound 833696] | 268
COc1cccc2c(C3CCN(C[C@@H]4C[C@H]4C(=O)NCCCN4CCCCC4)CC3)nn(C)c12 [compound 834056] | 93.2
O=C(C1CC1CN1CCC(c2noc3ccsc23)CC1)N1CCN(CC2CCCCC2)CC1 (racemic) [compound 832195] | 22.8
O=C(NC1CCN(CC2CC2)CC1)[C@@H]1C[C@H]1CN1CCC(c2noc3ccsc23)CC1 [compound 833483] | 0.93
Cc1ccc(CN2CCC(NC(=O)C3CC3CN3CCC(c4noc5ccsc45)CC3)CC2)cc1 (racemic) [compound 831992] | 4.81
Cc1ccc(S(=O)(=O)n2nc(N3CCN(C[C@@H]4C[C@H]4C(=O)N[C@H]4CC[C@H](O)CC4)CC3)c3sccc32)cc1 [compound 831951] | 36.7
C[C@H]1CC[C@H](NC(=O)[C@@H]2CC[C@H]2CN2CCCN(c3csc4cc(F)ccc34)CC2)CC1 (racemic) [compound 829997] | 10.4
COc1cccc2c(C3CCN(C[C@@H]4C[C@H]4C(=O)NCCCn4ccnc4)CC3)noc12 [compound 831880] | 100
CC1CCC(NC(=O)C2CC2CN2CCN(c3n[nH]c4ccccc34)CC2)CC1 (racemic) [compound 830116] | 13.1

Same assay, conditions: read-out: d3Ki

SMILES | Ki [nM]
CCOC(=O)[C@H]1CC[C@H](NC(=O)CCCN2CCN(c3csc4cc(C(F)(F)F)ccc34)CC2)CC1 [compound 826805] | 14.2
